Patent US20100048529A1, “New 2-Azetidinone Derivatives Useful In The Treatment Of Hyperlipidaemic Conditions” (ASTRAZENECA AB, priority 2005, published 2010)

System: 14C-cholesterol absorption
Conditions: 0.2 μmol/kg by gavage, C57BL/6 female mice, procedure A
Procedure: In Vivo Testing of Cholesterol Absorption Inhibitors (A)
C57BL/6 female mice were maintained on regular chow diet and housed in individual cages to collect faeces. Mice were fasted for 3 hours and then gavaged with vehicle or compound. Half an hour later the mice were gavaged with radiolabelled cholesterol. Six hours after the ^14C-cholesterol gavage blood samples were taken via the tail and plasma prepared to determine how much cholesterol were absorbed. 24 hours after the gavage of ^14C-cholesterol the mice were bled and plasma were prepared for analysis. Faeces were collected for 24 hours to assess absorption efficiency.

## CC(C)(c1ccccc1)[C@@H](NC(=O)CNC(=O)COc1ccc([C@@H]2[C@@H](SCC(O)c3ccc4c(c3)CCO4)C(=O)N2c2ccc(F)cc2)cc1)C(=O)NCC(=O)O (stereo partly drawn) [Example 1, N-({4-[(2R,3R)-3-{[2-(2,3-dihydro-1-benzofuran-5-yl)-2-hydroxyethyl]thio}-1-(4-fluorophenyl)-4-oxoazetidin-2-yl]phenoxy}acetyl)glycyl-b,b-dimethyl-D-phenylalanylglycine]
  inhibition of 14C-cholesterol absorption: 36%
